{"source": "patent US20220142959A1", "about": "“LEUCINE, ACETYL LEUCINE, AND RELATED ANALOGS FOR TREATING DISEASE” (priority 2019, published 2022)", "key": {"[1]": {"assay": "CCI induced TBI mice: food intake and body weight", "type": "in vivo", "details": "data not shown", "experimental": "(§1) Controlled cortical impact (CCI) induced TBI was performed in male C57BL6/J mice (20-25 g). Briefly, after a 10-mm midline incision was made over the skull, the skin and fascia were retracted, and a 4-mm craniotomy was made on the central aspect of the left parietal bone of mice under surgical anesthesia (2-3% isoflurane evaporated in a gas mixture containing 70% N20 and 30% 02). Moderate injury was induced in the exposed brain by a custom microprocessor-controlled and compressed air driven pneumatic impactor of 3.5 mm diameter tip with the impact velocity of 6 m/s and a deformation depth of 2 mm.\n(§2) N-Acetyl-L-Leucine (“NAL” or “NALL”) was dissolved in ethanol to prepare a 50 mg/ml solution which was then diluted in water to give a 10 mg/ml solution. About 0.25 ml of the NAL solution (10 mg/ml) was orally administered in mice at a […] (2.5 mg NAL/25 g mouse) via oral gavage each day after CCI induced TBI for 4 days. Mice were also fed with NAL at 0.5 mg/kg chow powder chow mixed with diet gel for up to 7 days after injury."}, "[2]": {"tested_on": "M1-type and M2-type inflammatory markers (mRNA)", "assay": "Real time rt-PCR of inflammatory markers in TBI mouse cortex", "type": "in vivo, mice", "details": "for expression of inflammatory markers / pro-inflammatory mediators (overall): CCI induced TBI in mice", "experimental": "as §1, §2\nThe expression level of M1-type pro-inflammatory markers Nos2, Nlrp3, IL-1β, TNF, IFNβ and Nox2 in the perilesional area in TBI mouse cortices were determined by real time rt-PCR. The expression level of M2-type markers Socs3, YM-1, IL4ra and Arg-1 in cortical tissue was also determined.\nTotal RNA isolated from the ipsilateral cortex using miRNeasy Mini Kit (Qiagen, Cat No. 217004) was converted into cDNA using High Capacity RNA to cDNA kit (Applied Biosystem, Cat. No. 4387406) as per manufacturer's instruction. cDNA TaqMan® Universal Master Mix II (Applied Biosystems, Cat. No. 4440040) was used to perform quantitative real-time PCR amplification as described previously using 20× TaqMan® Gene Expression Assay (Applied Biosystems) for following mouse genes were used: Gapdh (Mm99999915_g1), NLRP3 (Mm00840904_m1), NOX2 (Mm01287743_m1), iNOS (Mm00440502_m1), TNFα (Mm00443258_m1), IFnβ1 (Mm00439552_s1), IL-10 (Mm01288386_m1), IL1b (Mm00434228_m1), Arg1 (Mm00475988_m1), SOCS3 (Mm00545913_s1), YM-1 (Mm00657889_mH) and IL-4ra (Mm01275139_m1) (Applied Biosystems). Reactions were amplified and quantified using a 7900HT Fast Real-Time PCR System and corresponding software (Applied Biosystems). Relative gene expression normalized to Gapdh was calculated based on the comparative Ct method."}, "[3]": {"details": "NAL fed mouse cortices as compared to sham mice"}, "[4]": {"details": "cortices of NAL fed vs vehicle fed TBI mice"}}, "data": [{"molecule": "CC(=O)N[C@@H](CC(C)C)C(=O)O", "note": "[ALL, acetyl-L-leucine]", "values": [{"measurement": "change in body weight", "setting": "[1]; NALL treated TBI mice", "result": "no appreciable change"}, {"measurement": "food intake", "setting": "[1]; sham vs TBI mice fed with NALL", "result": "No significant difference"}, {"measurement": "expression of inflammatory markers / pro-inflammatory mediators (overall)", "setting": "[2]", "result": "modulates the expression of pro-inflammatory mediators"}, {"measurement": "expression of inflammatory markers / pro-inflammatory mediators (overall)", "setting": "[2]; listed as NAL", "result": "reduces expression of several inflammatory markers"}, {"measurement": "levels of IL-4ra", "setting": "[2]; [3]", "result": "remained unaltered"}, {"measurement": "levels of Socs3", "setting": "[2]; [3]", "result": "remained unaltered"}, {"measurement": "levels of YM-1", "setting": "[2]; [3]", "result": "remained unaltered"}, {"measurement": "mRNA level of IFNβ", "setting": "[2]; [4]", "result": "decrease"}, {"measurement": "mRNA level of Nox2", "setting": "[2]; [4]", "result": "decrease"}, {"measurement": "levels of Arg-1", "setting": "[2]; injured mouse cortex, NAL vs vehicle fed TBI mice", "result": "lowered"}]}]}
